PMC7104723 (Cell Research, 2020)
Residues, ends and D or L forms follow the SMILES beside them. *: point of attachment. X1 = CC(C)CCC[C@@H](C)[C@H]1CC[C@H]2[C@@H]3CC=C4C[C@@H](OC(=O)C*)CC[C@]4(C)[C@H]3CC[C@]12C

tested on: SARS-CoV-2 PsV; conditions: PsV, 72 h

| SMILES | IC50 [nM] |
| --- | --- |
| CC[C@H](C)[C@H](NC(=O)[C@H](C)NC(=O)[C@H](CCC(=O)O)NC(=O)[C@H](CCC(=O)O)NC(=O)[C@H](CC(C)C)NC(=O)[C@H](CCCCN)NC(=O)[C@H](CCCCN)NC(=O)[C@H](CCSC)NC(=O)[C@H](CCC(=O)O)NC(=O)[C@H](Cc1ccc(O)cc1)NC(=O)[C@H](CCC(=O)O)NC(=O)[C@H](CC(C)C)NC(=O)[C@H](CC(=O)O)NC(=O)[C@H](CC(C)C)NC(=O)[C@H](Cc1ccccc1)NC(=O)[C@@H](NC(=O)[C@@H](NC(=O)[C@H](CC(N)=O)NC(=O)[C@@H](NC(=O)[C@H](CCC(N)=O)NC(=O)[C@H](CC(=O)O)NC(=O)[C@H](CC(C)C)NC(=O)[C@@H](N)CO)[C@@H](C)CC)C(C)C)[C@@H](C)O)C(=O)N[C@@H](CCCCN)C(=O)N[C@@H](CCCCN)C(=O)N[C@@H](CC(C)C)C(=O)N[C@@H](CCC(=O)O)C(=O)N[C@@H](CCC(=O)O)C(=O)N[C@@H](CO)C(=O)N[C@@H](Cc1ccc(O)cc1)C(=O)N[C@H](C(=O)N[C@@H](CC(=O)O)C(=O)N[C@@H](CC(C)C)C(=O)N[C@@H](CCCCN)C(=O)N[C@@H](CCC(=O)O)C(=O)N[C@@H](CC(C)C)C(=O)NCC(=O)N[C@@H](CO)C(=O)NCC(=O)N[C@@H](CSCC(=O)O[C@H]1CC[C@@]2(C)C(=CC[C@H]3[C@@H]4CC[C@H]([C@H](C)CCCC(C)C)[C@@]4(C)CC[C@@H]32)C1)C(N)=O)[C@@H](C)CC [EK1C2] | 419 |
| CC[C@H](C)[C@H](NC(=O)[C@H](C)NC(=O)[C@H](CCC(=O)O)NC(=O)[C@H](CCC(=O)O)NC(=O)[C@H](CC(C)C)NC(=O)[C@H](CCCCN)NC(=O)[C@H](CCCCN)NC(=O)[C@H](CCSC)NC(=O)[C@H](CCC(=O)O)NC(=O)[C@H](Cc1ccc(O)cc1)NC(=O)[C@H](CCC(=O)O)NC(=O)[C@H](CC(C)C)NC(=O)[C@H](CC(=O)O)NC(=O)[C@H](CC(C)C)NC(=O)[C@H](Cc1ccccc1)NC(=O)[C@@H](NC(=O)[C@@H](NC(=O)[C@H](CC(N)=O)NC(=O)[C@@H](NC(=O)[C@H](CCC(N)=O)NC(=O)[C@H](CC(=O)O)NC(=O)[C@H](CC(C)C)NC(=O)[C@@H](N)CO)[C@@H](C)CC)C(C)C)[C@@H](C)O)C(=O)N[C@@H](CCCCN)C(=O)N[C@@H](CCCCN)C(=O)N[C@@H](CC(C)C)C(=O)N[C@@H](CCC(=O)O)C(=O)N[C@@H](CCC(=O)O)C(=O)N[C@@H](CO)C(=O)N[C@@H](Cc1ccc(O)cc1)C(=O)N[C@H](C(=O)N[C@@H](CC(=O)O)C(=O)N[C@@H](CC(C)C)C(=O)N[C@@H](CCCCN)C(=O)N[C@@H](CCC(=O)O)C(=O)N[C@@H](CC(C)C)C(=O)N[C@@H](CSCC(=O)O[C@H]1CC[C@@]2(C)C(=CC[C@H]3[C@@H]4CC[C@H]([C@H](C)CCCC(C)C)[C@@]4(C)CC[C@@H]32)C1)C(N)=O)[C@@H](C)CC [EK1C1] (H-SLDQINVTFLDLEYEMKKLEEAIKKLEESYIDLKELC(X1)-NH2) | 480 |
| CC[C@H](C)[C@H](NC(=O)[C@H](C)NC(=O)[C@H](CCC(=O)O)NC(=O)[C@H](CCC(=O)O)NC(=O)[C@H](CC(C)C)NC(=O)[C@H](CCCCN)NC(=O)[C@H](CCCCN)NC(=O)[C@H](CCSC)NC(=O)[C@H](CCC(=O)O)NC(=O)[C@H](Cc1ccc(O)cc1)NC(=O)[C@H](CCC(=O)O)NC(=O)[C@H](CC(C)C)NC(=O)[C@H](CC(=O)O)NC(=O)[C@H](CC(C)C)NC(=O)[C@H](Cc1ccccc1)NC(=O)[C@@H](NC(=O)[C@@H](NC(=O)[C@H](CC(N)=O)NC(=O)[C@@H](NC(=O)[C@H](CCC(N)=O)NC(=O)[C@H](CC(=O)O)NC(=O)[C@H](CC(C)C)NC(=O)[C@@H](N)CO)[C@@H](C)CC)C(C)C)[C@@H](C)O)C(=O)N[C@@H](CCCCN)C(=O)N[C@@H](CCCCN)C(=O)N[C@@H](CC(C)C)C(=O)N[C@@H](CCC(=O)O)C(=O)N[C@@H](CCC(=O)O)C(=O)N[C@@H](CO)C(=O)N[C@@H](Cc1ccc(O)cc1)C(=O)N[C@H](C(=O)N[C@@H](CC(=O)O)C(=O)N[C@@H](CC(C)C)C(=O)N[C@@H](CCCCN)C(=O)N[C@@H](CCC(=O)O)C(=O)N[C@@H](CC(C)C)C(=O)NCC(=O)N[C@@H](CO)C(=O)NCC(=O)N[C@@H](CO)C(=O)NCC(=O)NCCOCCOCCOCCOCCOCCOCCOCCOCCOCCOCCOCCOCCOCCOCCOCCOCCOCCOCCOCCOCCOCCOCCOCCOCCC(=O)N[C@@H](CSCC(=O)O[C@H]1CC[C@@]2(C)C(=CC[C@H]3[C@@H]4CC[C@H]([C@H](C)CCCC(C)C)[C@@]4(C)CC[C@@H]32)C1)C(N)=O)[C@@H](C)CC [EK1C7] | 84.4 |
| CC[C@H](C)[C@H](NC(=O)[C@H](C)NC(=O)[C@H](CCC(=O)O)NC(=O)[C@H](CCC(=O)O)NC(=O)[C@H](CC(C)C)NC(=O)[C@H](CCCCN)NC(=O)[C@H](CCCCN)NC(=O)[C@H](CCSC)NC(=O)[C@H](CCC(=O)O)NC(=O)[C@H](Cc1ccc(O)cc1)NC(=O)[C@H](CCC(=O)O)NC(=O)[C@H](CC(C)C)NC(=O)[C@H](CC(=O)O)NC(=O)[C@H](CC(C)C)NC(=O)[C@H](Cc1ccccc1)NC(=O)[C@@H](NC(=O)[C@@H](NC(=O)[C@H](CC(N)=O)NC(=O)[C@@H](NC(=O)[C@H](CCC(N)=O)NC(=O)[C@H](CC(=O)O)NC(=O)[C@H](CC(C)C)NC(=O)[C@@H](N)CO)[C@@H](C)CC)C(C)C)[C@@H](C)O)C(=O)N[C@@H](CCCCN)C(=O)N[C@@H](CCCCN)C(=O)N[C@@H](CC(C)C)C(=O)N[C@@H](CCC(=O)O)C(=O)N[C@@H](CCC(=O)O)C(=O)N[C@@H](CO)C(=O)N[C@@H](Cc1ccc(O)cc1)C(=O)N[C@H](C(=O)N[C@@H](CC(=O)O)C(=O)N[C@@H](CC(C)C)C(=O)N[C@@H](CCCCN)C(=O)N[C@@H](CCC(=O)O)C(=O)N[C@@H](CC(C)C)C(=O)NCC(=O)N[C@@H](CO)C(=O)NCC(=O)N[C@@H](CO)C(=O)NCC(=O)NCCOCCOCCOCCOCCOCCOCCOCCOCCC(=O)N[C@@H](CSCC(=O)O[C@H]1CC[C@@]2(C)C(=CC[C@H]3[C@@H]4CC[C@H]([C@H](C)CCCC(C)C)[C@@]4(C)CC[C@@H]32)C1)C(N)=O)[C@@H](C)CC [EK1C5] | 31.3 |
| CC[C@H](C)[C@H](NC(=O)[C@H](C)NC(=O)[C@H](CCC(=O)O)NC(=O)[C@H](CCC(=O)O)NC(=O)[C@H](CC(C)C)NC(=O)[C@H](CCCCN)NC(=O)[C@H](CCCCN)NC(=O)[C@H](CCSC)NC(=O)[C@H](CCC(=O)O)NC(=O)[C@H](Cc1ccc(O)cc1)NC(=O)[C@H](CCC(=O)O)NC(=O)[C@H](CC(C)C)NC(=O)[C@H](CC(=O)O)NC(=O)[C@H](CC(C)C)NC(=O)[C@H](Cc1ccccc1)NC(=O)[C@@H](NC(=O)[C@@H](NC(=O)[C@H](CC(N)=O)NC(=O)[C@@H](NC(=O)[C@H](CCC(N)=O)NC(=O)[C@H](CC(=O)O)NC(=O)[C@H](CC(C)C)NC(=O)[C@@H](N)CO)[C@@H](C)CC)C(C)C)[C@@H](C)O)C(=O)N[C@@H](CCCCN)C(=O)N[C@@H](CCCCN)C(=O)N[C@@H](CC(C)C)C(=O)N[C@@H](CCC(=O)O)C(=O)N[C@@H](CCC(=O)O)C(=O)N[C@@H](CO)C(=O)N[C@@H](Cc1ccc(O)cc1)C(=O)N[C@H](C(=O)N[C@@H](CC(=O)O)C(=O)N[C@@H](CC(C)C)C(=O)N[C@@H](CCCCN)C(=O)N[C@@H](CCC(=O)O)C(=O)N[C@@H](CC(C)C)C(=O)NCC(=O)N[C@@H](CO)C(=O)NCC(=O)N[C@@H](CO)C(=O)NCC(=O)NCCOCCOCCOCCOCCOCCOCCOCCOCCOCCOCCOCCOCCC(=O)N[C@@H](CSCC(=O)O[C@H]1CC[C@@]2(C)C(=CC[C@H]3[C@@H]4CC[C@H]([C@H](C)CCCC(C)C)[C@@]4(C)CC[C@@H]32)C1)C(N)=O)[C@@H](C)CC [EK1C6] | 77.4 |
